According to PubChem BioAssay (NCI):
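Following 48 hours of exposure in 96-well plates, responses at five concentrations were used to interpolate endpoints linearly. At the TGI there is no net growth.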

Key:
Test in all cases: NCI anticancer screen, dose series, 48 h
786-0 renal = tested on: 786-0 renal
A498 renal = tested on: A498 renal
A549 NSCLC = tested on: A549 NSCLC
ACHN renal = tested on: ACHN renal
CAKI-1 renal = tested on: CAKI-1 renal
CCRF-CEM leukemia = tested on: CCRF-CEM leukemia
COLO 205 colon = tested on: COLO 205 colon
DLD-1 colon = tested on: DLD-1 colon
DMS 114 small cell lung = tested on: DMS 114 small cell lung
DMS 273 small cell lung = tested on: DMS 273 small cell lung
EKVX NSCLC = tested on: EKVX NSCLC
HCC-2998 colon = tested on: HCC-2998 colon
HCT-116 colon = tested on: HCT-116 colon
HCT-15 colon = tested on: HCT-15 colon
HL-60(TB) leukemia = tested on: HL-60(TB) leukemia
HOP-18 NSCLC = tested on: HOP-18 NSCLC
HOP-62 NSCLC = tested on: HOP-62 NSCLC
HOP-92 NSCLC = tested on: HOP-92 NSCLC
HT29 colon = tested on: HT29 colon
IGROV1 ovarian = tested on: IGROV1 ovarian
K-562 leukemia = tested on: K-562 leukemia
KM12 colon = tested on: KM12 colon
KM20L2 colon = tested on: KM20L2 colon
LOX IMVI melanoma = tested on: LOX IMVI melanoma
LXFL 529 NSCLC = tested on: LXFL 529 NSCLC
M14 melanoma = tested on: M14 melanoma
M19-MEL melanoma = tested on: M19-MEL melanoma
MALME-3M melanoma = tested on: MALME-3M melanoma
MOLT-4 leukemia = tested on: MOLT-4 leukemia
NCI-H226 lung = tested on: NCI-H226 lung
NCI-H23 lung = tested on: NCI-H23 lung
NCI-H460 lung = tested on: NCI-H460 lung
NCI-H522 lung = tested on: NCI-H522 lung
OVCAR-3 ovarian = tested on: OVCAR-3 ovarian
OVCAR-4 ovarian = tested on: OVCAR-4 ovarian
OVCAR-5 ovarian = tested on: OVCAR-5 ovarian
OVCAR-8 ovarian = tested on: OVCAR-8 ovarian
RPMI-8226 leukemia = tested on: RPMI-8226 leukemia
RXF 393 renal = tested on: RXF 393 renal
SF-268 CNS = tested on: SF-268 CNS
SF-295 CNS = tested on: SF-295 CNS
SF-539 CNS = tested on: SF-539 CNS
SK-MEL-2 melanoma = tested on: SK-MEL-2 melanoma
SK-MEL-28 melanoma = tested on: SK-MEL-28 melanoma
SK-MEL-5 melanoma = tested on: SK-MEL-5 melanoma
SK-OV-3 ovarian = tested on: SK-OV-3 ovarian
SN12C renal = tested on: SN12C renal
SNB-19 CNS = tested on: SNB-19 CNS
SNB-75 CNS = tested on: SNB-75 CNS
SNB-78 CNS = tested on: SNB-78 CNS
SW-620 colon = tested on: SW-620 colon
TK-10 renal = tested on: TK-10 renal
U251 CNS = tested on: U251 CNS
UACC-257 melanoma = tested on: UACC-257 melanoma
UACC-62 melanoma = tested on: UACC-62 melanoma
UO-31 renal = tested on: UO-31 renal
SR leukemia = tested on: SR leukemia

## CSc1ccc2c(cc1=O)C(NC(=O)c1cc(O)c(OC(=O)O)c(O)c1)CCc1cc(O)c(O)c(O)c1-2 (centres undefined)
786-0 renal
  TGI: > 90 µM
A498 renal
  TGI: > 90 µM
A549 NSCLC
  TGI: 52 µM
ACHN renal
  TGI: > 90 µM
CAKI-1 renal
  TGI: 41.9 µM
CCRF-CEM leukemia
  TGI: > 90 µM
COLO 205 colon
  TGI: > 90 µM
DLD-1 colon
  TGI: 43.9 µM
DMS 114 small cell lung
  TGI: 36 µM
DMS 273 small cell lung
  TGI: 38.6 µM
EKVX NSCLC
  TGI: 38.8 µM
HCC-2998 colon
  TGI: > 90 µM
HCT-116 colon
  TGI: 29.1 µM
HCT-15 colon
  TGI: 34.3 µM
HL-60(TB) leukemia
  TGI: 70.3 µM
HOP-18 NSCLC
  TGI: > 90 µM
HOP-62 NSCLC
  TGI: 64.5 µM
HOP-92 NSCLC
  TGI: 51.4 µM
HT29 colon
  TGI: 40.2 µM
IGROV1 ovarian
  TGI: 37.7 µM
K-562 leukemia
  TGI: 42.3 µM
KM12 colon
  TGI: 65.3 µM
KM20L2 colon
  TGI: 83.2 µM
LOX IMVI melanoma
  TGI: 24.8 µM
LXFL 529 NSCLC
  TGI: 36.9 µM
M14 melanoma
  TGI: 30.5 µM
M19-MEL melanoma
  TGI: 27.4 µM
MALME-3M melanoma
  TGI: > 90 µM
MOLT-4 leukemia
  TGI: 35.6 µM
NCI-H226 lung
  TGI: 62.3 µM
NCI-H23 lung
  TGI: 42.5 µM
NCI-H460 lung
  TGI: 49.1 µM
NCI-H522 lung
  TGI: 21.8 µM
OVCAR-3 ovarian
  TGI: 40 µM
OVCAR-4 ovarian
  TGI: 40.9 µM
OVCAR-5 ovarian
  TGI: > 9 µM
OVCAR-8 ovarian
  TGI: > 90 µM
RPMI-8226 leukemia
  TGI: 39.8 µM
RXF 393 renal
  TGI: > 90 µM
SF-268 CNS
  TGI: 43 µM
SF-295 CNS
  TGI: 36.5 µM
SF-539 CNS
  TGI: > 90 µM
SK-MEL-2 melanoma
  TGI: > 90 µM
SK-MEL-28 melanoma
  TGI: 56.2 µM
SK-MEL-5 melanoma
  TGI: 29.1 µM
SK-OV-3 ovarian
  TGI: > 90 µM
SN12C renal
  TGI: 26.7 µM
SNB-19 CNS
  TGI: > 90 µM
SNB-75 CNS
  TGI: > 90 µM
SNB-78 CNS
  TGI: 81.6 µM
SW-620 colon
  TGI: 29.3 µM
TK-10 renal
  TGI: > 90 µM
U251 CNS
  TGI: 32.9 µM
UACC-257 melanoma
  TGI: > 90 µM
UACC-62 melanoma
  TGI: 30.6 µM
UO-31 renal
  TGI: > 90 µM

## O=C1c2ccccc2N2OC3C4CCC(C4)C3C12c1ccccc1 (centres undefined)
786-0 renal
  TGI: > 100 µM
A498 renal
  TGI: > 100 µM
A549 NSCLC
  TGI: > 100 µM
ACHN renal
  TGI: > 100 µM
CCRF-CEM leukemia
  TGI: > 100 µM
COLO 205 colon
  TGI: > 100 µM
DLD-1 colon
  TGI: > 100 µM
DMS 114 small cell lung
  TGI: > 100 µM
DMS 273 small cell lung
  TGI: > 100 µM
EKVX NSCLC
  TGI: > 100 µM
HCC-2998 colon
  TGI: > 100 µM
HCT-116 colon
  TGI: > 100 µM
HCT-15 colon
  TGI: > 100 µM
HL-60(TB) leukemia
  TGI: > 100 µM
HOP-18 NSCLC
  TGI: > 100 µM
HOP-62 NSCLC
  TGI: > 100 µM
HOP-92 NSCLC
  TGI: > 100 µM
HT29 colon
  TGI: > 100 µM
IGROV1 ovarian
  TGI: > 100 µM
K-562 leukemia
  TGI: > 100 µM
KM20L2 colon
  TGI: > 100 µM
LXFL 529 NSCLC
  TGI: > 100 µM
M14 melanoma
  TGI: > 100 µM
M19-MEL melanoma
  TGI: > 100 µM
MALME-3M melanoma
  TGI: > 100 µM
MOLT-4 leukemia
  TGI: > 100 µM
NCI-H226 lung
  TGI: > 100 µM
NCI-H23 lung
  TGI: > 100 µM
NCI-H522 lung
  TGI: > 100 µM
OVCAR-4 ovarian
  TGI: > 100 µM
OVCAR-8 ovarian
  TGI: > 100 µM
RPMI-8226 leukemia
  TGI: > 100 µM
RXF 393 renal
  TGI: 77.8 µM
SF-268 CNS
  TGI: > 100 µM
SF-295 CNS
  TGI: > 100 µM
SF-539 CNS
  TGI: > 100 µM
SK-MEL-28 melanoma
  TGI: > 100 µM
SK-MEL-5 melanoma
  TGI: > 100 µM
SK-OV-3 ovarian
  TGI: > 100 µM
SN12C renal
  TGI: > 100 µM
SNB-19 CNS
  TGI: > 100 µM
SNB-75 CNS
  TGI: > 100 µM
SR leukemia
  TGI: > 100 µM
SW-620 colon
  TGI: > 100 µM
U251 CNS
  TGI: > 100 µM
UACC-257 melanoma
  TGI: > 100 µM
UACC-62 melanoma
  TGI: > 100 µM
UO-31 renal
  TGI: > 100 µM

## C=C(/C=C/C=C(/CCC=C(C)C)COC(C)=O)[C@@H]1CC[C@]2([C@H](CCCO)/C(=C(/C)C=O)CC[C@]2(C)O)[C@@H]1O
A549 NSCLC
  TGI: 26.2 µM
ACHN renal
  TGI: 27.6 µM
CAKI-1 renal
  TGI: 17.5 µM
CCRF-CEM leukemia
  TGI: 4.97 µM
COLO 205 colon
  TGI: 7.06 µM
DLD-1 colon
  TGI: 30.4 µM
DMS 114 small cell lung
  TGI: 28.8 µM
DMS 273 small cell lung
  TGI: 21.1 µM
EKVX NSCLC
  TGI: 42.2 µM
HCC-2998 colon
  TGI: 20.3 µM
HCT-116 colon
  TGI: 45.6 µM
HCT-15 colon
  TGI: 30.4 µM
HL-60(TB) leukemia
  TGI: 11.1 µM
HOP-18 NSCLC
  TGI: 23.7 µM
HT29 colon
  TGI: 28.4 µM
IGROV1 ovarian
  TGI: 36.2 µM
K-562 leukemia
  TGI: 30.2 µM
KM12 colon
  TGI: 32.4 µM
KM20L2 colon
  TGI: 27.9 µM
LOX IMVI melanoma
  TGI: 27.4 µM
M14 melanoma
  TGI: 23.5 µM
M19-MEL melanoma
  TGI: 33.3 µM
MALME-3M melanoma
  TGI: 15.7 µM
MOLT-4 leukemia
  TGI: 34.9 µM
NCI-H226 lung
  TGI: 19.6 µM
NCI-H23 lung
  TGI: 35.5 µM
NCI-H460 lung
  TGI: 24.3 µM
NCI-H522 lung
  TGI: 32.6 µM
OVCAR-5 ovarian
  TGI: 53.7 µM
OVCAR-8 ovarian
  TGI: 52.3 µM
RXF 393 renal
  TGI: 33.1 µM
SF-268 CNS
  TGI: 41.9 µM
SF-295 CNS
  TGI: 19.6 µM
SF-539 CNS
  TGI: 28.5 µM
SK-MEL-2 melanoma
  TGI: 33 µM
SK-MEL-28 melanoma
  TGI: 26.9 µM
SK-OV-3 ovarian
  TGI: 54.5 µM
SN12C renal
  TGI: 29.9 µM
SNB-19 CNS
  TGI: 29.7 µM
SW-620 colon
  TGI: 22 µM
TK-10 renal
  TGI: 31.3 µM
U251 CNS
  TGI: 30.7 µM
UACC-257 melanoma
  TGI: 32.6 µM
UO-31 renal
  TGI: 25.6 µM

## COc1cccc(C(=O)O)c1Cc1cccc2ccccc12
786-0 renal
  TGI: > 100 µM
A549 NSCLC
  TGI: > 100 µM
ACHN renal
  TGI: > 100 µM
CAKI-1 renal
  TGI: > 100 µM
CCRF-CEM leukemia
  TGI: > 100 µM
COLO 205 colon
  TGI: > 100 µM
DLD-1 colon
  TGI: > 100 µM
DMS 273 small cell lung
  TGI: > 100 µM
EKVX NSCLC
  TGI: > 100 µM
HCC-2998 colon
  TGI: > 100 µM
HCT-116 colon
  TGI: > 100 µM
HCT-15 colon
  TGI: > 100 µM
HL-60(TB) leukemia
  TGI: > 100 µM
HOP-18 NSCLC
  TGI: > 100 µM
HOP-62 NSCLC
  TGI: > 100 µM
HT29 colon
  TGI: > 100 µM
IGROV1 ovarian
  TGI: > 100 µM
K-562 leukemia
  TGI: > 100 µM
KM12 colon
  TGI: > 100 µM
KM20L2 colon
  TGI: > 100 µM
LOX IMVI melanoma
  TGI: > 100 µM
LXFL 529 NSCLC
  TGI: > 100 µM
M14 melanoma
  TGI: > 100 µM
M19-MEL melanoma
  TGI: > 100 µM
MALME-3M melanoma
  TGI: > 100 µM
MOLT-4 leukemia
  TGI: > 100 µM
NCI-H226 lung
  TGI: > 100 µM
NCI-H23 lung
  TGI: > 100 µM
NCI-H460 lung
  TGI: > 100 µM
NCI-H522 lung
  TGI: > 100 µM
OVCAR-3 ovarian
  TGI: > 100 µM
OVCAR-4 ovarian
  TGI: > 100 µM
OVCAR-5 ovarian
  TGI: > 100 µM
OVCAR-8 ovarian
  TGI: > 100 µM
RXF 393 renal
  TGI: > 100 µM
SF-268 CNS
  TGI: > 100 µM
SF-295 CNS
  TGI: > 100 µM
SK-MEL-2 melanoma
  TGI: > 100 µM
SK-MEL-28 melanoma
  TGI: > 100 µM
SK-MEL-5 melanoma
  TGI: > 100 µM
SK-OV-3 ovarian
  TGI: > 100 µM
SN12C renal
  TGI: > 100 µM
SNB-19 CNS
  TGI: > 100 µM
SNB-75 CNS
  TGI: > 100 µM
SR leukemia
  TGI: > 100 µM
SW-620 colon
  TGI: > 100 µM
TK-10 renal
  TGI: > 100 µM
U251 CNS
  TGI: > 100 µM
UACC-257 melanoma
  TGI: > 100 µM
UACC-62 melanoma
  TGI: > 100 µM
UO-31 renal
  TGI: > 100 µM
